These are literature values, as cited in US20090252806A1, “NANOPARTICULATE TACROLIMUS FORMULATIONS” (Elan Pharma International Ltd., priority 2004, published 2009).

The conditions of data set [1]: oral.
The conditions of data set [2]: for reduction of mean AUC relative to the fasted condition / reduction of mean Cmax relative to the fasted condition: healthy volunteers (N=16).
The conditions of data set [3]: U.S. study; average (range).
The conditions of data set [4]: 18 fasted healthy volunteers; single oral dose of 3 mg, 7 mg, and 10 mg.
The mark [5] stands for this setting: 15 minutes after a high fat (400 kcal, 34% fat) breakfast, 11 liver transplant patients.
Where [6] appears, read: administered 1.5 hours following the meal.
Where [7] appears, read: given immediately following the meal.

Like-named read-outs stand apart in the source and are kept apart here.

`C=CC[C@@H]1/C=C(\C)C[C@H](C)C[C@H](OC)[C@H]2O[C@@](O)(C(=O)C(=O)N3CCCC[C@H]3C(=O)O[C@H](/C(C)=C/[C@@H]3CC[C@@H](O)[C@H](OC)C3)[C@H](C)[C@@H](O)CC1=O)[C@H](C)C[C@@H]2OC` [tacrolimus, Tacrolimus]: the absolute bioavailability is given as 17±10% in data set [1] (adult kidney transplant patients (N=26)) and 22±6% in data set [1] (adult liver transplant patients (N=17)). Moreover, in data set [2] (setting [5]), the “decreased AUC as compared to a fasted state” value is recorded as 27±18%. For the same molecule, in data set [2] (setting [5]), the “decreased Cmax as compared to a fasted state” value is listed as 50±19%. Moreover, the “reduction of mean AUC relative to the fasted condition” value in data set [2] (setting [6]) and in data set [2] (setting [7]) was 39% each time. For the same molecule, the “reduction of mean Cmax relative to the fasted condition” value in data set [2] (setting [6]) is 63%; in data set [2] (setting [7]) it was 71%. The “lengthening of Tmax” value in data set [2] (high-fat meal (848 kcal, 46% fat), 15 healthy volunteers) is on record as 5 fold. For the same molecule, the “ratio of whole blood concentration to plasma concentration” value in data set [3] was 35 (range 12 to 67). The solubility result by setting is: (in chloroform) “very soluble”; (in ethanol) “freely soluble”; (in methanol) “very soluble”; (in water) “practically insoluble”. Moreover, in data set [4], the “increase of Cmax and AUC with dose” value is “dose-proportional”.
